Test results reported in ChEMBL document CHEMBL3046304, “Discovery of a series of novel compounds with moderate anti-avian H5N1 influenza virus activity in chick embryo” (Med Chem Res, 2013).

Experiments:
[1] = tested on: Influenza A virus; assay: Ratio of compound MED to oseltamivir carboxylate MED for influenza A virus (A/duck/China/QJ/01(H5N1)) infected in chick embryo measured after 5 days by hemagglutination assay; type: functional
[2] = tested on: Influenza A virus; assay: Ratio of compound MED to oseltamivir MED for influenza A virus (A/duck/China/QJ/01(H5N1)) infected in chick embryo measured after 5 days by hemagglutination assay; type: functional
[3] = tested on: Influenza A virus; type: functional
[4] = molecular target: T1, Neuraminidase (Influenza A virus, UniProt B4URF0); parameters: species or system (A/chicken/Shandong/LY/2008(H9N2))
[5] = molecular target: T1, Neuraminidase; parameters: species or system (A/duck/China/QJ/01(H5N1))
[6] = Inhibition of neuraminidase

T1 sequence (B4URF0 whole entry): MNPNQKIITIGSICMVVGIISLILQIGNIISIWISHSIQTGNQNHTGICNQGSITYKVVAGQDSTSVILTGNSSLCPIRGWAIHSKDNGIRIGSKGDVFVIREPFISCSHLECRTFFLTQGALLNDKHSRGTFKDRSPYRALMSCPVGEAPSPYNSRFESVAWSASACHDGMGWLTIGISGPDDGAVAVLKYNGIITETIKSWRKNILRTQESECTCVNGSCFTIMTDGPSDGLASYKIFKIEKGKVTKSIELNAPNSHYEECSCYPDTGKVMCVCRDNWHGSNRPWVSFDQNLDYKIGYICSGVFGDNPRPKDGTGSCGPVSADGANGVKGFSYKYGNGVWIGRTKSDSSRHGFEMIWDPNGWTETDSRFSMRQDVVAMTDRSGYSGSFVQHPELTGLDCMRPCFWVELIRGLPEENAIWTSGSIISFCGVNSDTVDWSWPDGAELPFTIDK

Q: What does the source list for `O=c1cc(-c2ccc(O)cc2)oc2cc(O)cc(O)c12` [APIGENIN]?
A: Ratio [1]: 4; Ratio [2]: 4

Q: Which MED [3] does the source give for `Cl.N=C(NCCC[C@H](N)C(=O)Nc1cc(NC(=O)/C=C/c2ccco2)ccc1O)N[N+](=O)[O-]` here?
A: 5 µM

Q: What about the IC50 [4] of the same compound?
A: 193 µM

Q: What about the IC50 [5] of the same compound?
A: 192 µM

Q: What about the Ratio [1] of the same compound?
A: 4

Q: What about the Ratio [2] of the same compound?
A: 4

Q: Which MED [3] does the source give for `CC(C)C[C@H](N)C(=O)Nc1cc(NC(=O)/C=C/c2ccco2)ccc1O.Cl` here?
A: 5 µM

Q: What about the IC50 [4] of the same compound?
A: 179 µM

Q: What about the IC50 [5] of the same compound?
A: 148 µM

Q: What about the Ratio [1] of the same compound?
A: 4

Q: What about the Ratio [2] of the same compound?
A: 4

Q: Which results are given for `CC[C@H](C)[C@H](N)C(=O)Nc1cc(NC(=O)/C=C/c2ccc(O)c(O)c2)ccc1O.Cl`?
A: MED [3]: 2.5 µM; IC50 [4]: 0.0017 µM; IC50 [5]: 0.012 µM; Ratio [1]: 4; Ratio [2]: 4

Q: Which MED [3] does the source give for `CC(C)C[C@H](N)C(=O)Nc1cc(NC(=O)/C=C/c2ccc(O)c(O)c2)ccc1O.Cl` here?
A: 2.5 µM

Q: And the IC50 [4]?
A: 154 µM

Q: And the IC50 [5]?
A: 135 µM

Q: And the Ratio [1]?
A: 4

Q: What about the Ratio [2] of the same compound?
A: 4

Q: For `Cl.NCCCC[C@H](N)C(=O)Nc1cc(NC(=O)/C=C/c2ccco2)ccc1O`, which MED [3] is on record?
A: 5 µM

Q: And the IC50 [4]?
A: 215 µM

Q: What about the IC50 [5] of the same compound?
A: 225 µM

Q: And the Ratio [1]?
A: 4

Q: What about the Ratio [2] of the same compound?
A: 4

Q: Which MED [3] does the source give for `CCC(CC)O[C@@H]1C=C(C(=O)O)C[C@H](N)[C@H]1NC(C)=O.Cl` [OSELTAMIVIR CARBOXYLATE HYDROCHLORIDE] here?
A: 0.625 µM

Q: For `Cl.N[C@@H](Cc1ccccc1)C(=O)Nc1cc(NC(=O)/C=C/c2ccco2)ccc1O`, which MED [3] is on record?
A: 5 µM

Q: And the IC50 [4]?
A: 143 µM

Q: And the IC50 [5]?
A: 130 µM

Q: What about the Ratio [1] of the same compound?
A: 4

Q: And the Ratio [2]?
A: 4

Q: Which results are given for `Cl.N[C@@H](CO)C(=O)Nc1cc(NC(=O)/C=C/c2ccco2)ccc1O`?
A: MED [3]: 5 µM; IC50 [4]: 158 µM; IC50 [5]: 143 µM; Ratio [1]: 4; Ratio [2]: 4

Q: What does the source list for `Cl.O=C(/C=C/c1ccco1)Nc1ccc(O)c(NC(=O)[C@@H]2C[C@@H](O)CN2)c1`?
A: MED [3]: 5 µM; IC50 [4]: 111 µM; IC50 [5]: 109 µM; Ratio [1]: 4; Ratio [2]: 4

Q: For `NC(Cn1ccc(=O)c(O)c1)C(=O)N[C@@H](Cc1ccccc1)C(=O)O` (stereo partly specified), which IC50 [6] is on record?
A: 1.8 µM

Q: For `CC(C)[C@H](N)C(=O)Nc1cc(NC(=O)/C=C/c2ccc(O)c(O)c2)ccc1O.Cl`, which MED [3] is on record?
A: 2.5 µM

Q: And the IC50 [4]?
A: 138 µM

Q: What about the IC50 [5] of the same compound?
A: 114 µM

Q: And the Ratio [1]?
A: 4

Q: What about the Ratio [2] of the same compound?
A: 4

Q: With `C[C@H](N)C(=O)Nc1cc(NC(=O)/C=C/c2ccco2)ccc1O.Cl` as the compound, how does the MED [3] read?
A: 5 µM

Q: And the IC50 [4]?
A: 91.7 µM

Q: And the IC50 [5]?
A: 110 µM

Q: And the Ratio [1]?
A: 4

Q: What about the Ratio [2] of the same compound?
A: 4

Q: Which MED [3] does the source give for `CC[C@H](C)[C@H](N)C(=O)Nc1cc(NC(=O)/C=C/c2ccco2)ccc1O.Cl` here?
A: 2.5 µM

Q: And the IC50 [4]?
A: 119 µM

Q: And the IC50 [5]?
A: 103 µM

Q: And the Ratio [1]?
A: 4

Q: And the Ratio [2]?
A: 4

Q: Which MED [3] does the source give for `CC(C)[C@H](N)C(=O)Nc1cc(NC(=O)/C=C/c2ccco2)ccc1O.Cl` here?
A: 2.5 µM

Q: And the IC50 [4]?
A: 165 µM

Q: What about the IC50 [5] of the same compound?
A: 175 µM

Q: What about the Ratio [1] of the same compound?
A: 4

Q: What about the Ratio [2] of the same compound?
A: 4

Q: Which MED [3] does the source give for `Cl.NCCCC(=O)Nc1cc(NC(=O)/C=C/c2ccco2)ccc1O` here?
A: 5 µM

Q: What about the IC50 [4] of the same compound?
A: 167 µM

Q: And the IC50 [5]?
A: 132 µM

Q: What about the Ratio [1] of the same compound?
A: 4

Q: And the Ratio [2]?
A: 4

Q: Which results are given for `Cl.O=C(/C=C/c1ccco1)Nc1ccc(O)c(NC(=O)[C@@H]2CCCN2)c1`?
A: MED [3]: 5 µM; IC50 [4]: 85.3 µM; IC50 [5]: 57.8 µM; Ratio [1]: 4; Ratio [2]: 4

Q: With `C[C@H](N)C(=O)Nc1cc(NC(=O)/C=C/c2ccc(O)c(O)c2)ccc1O.Cl` as the compound, how does the MED [3] read?
A: 5 µM

Q: And the IC50 [4]?
A: 105 µM

Q: What about the IC50 [5] of the same compound?
A: 113 µM

Q: And the Ratio [1]?
A: 4

Q: And the Ratio [2]?
A: 4

Q: With `Cl.NCC(=O)Nc1cc(NC(=O)/C=C/c2ccco2)ccc1O` as the compound, how does the MED [3] read?
A: 5 µM

Q: What about the IC50 [4] of the same compound?
A: 175 µM

Q: What about the IC50 [5] of the same compound?
A: 139 µM

Q: What about the Ratio [1] of the same compound?
A: 4

Q: What about the Ratio [2] of the same compound?
A: 4

Q: For `Cl.NCCC(=O)Nc1cc(NC(=O)/C=C/c2ccco2)ccc1O`, which MED [3] is on record?
A: 5 µM

Q: What about the IC50 [4] of the same compound?
A: 118 µM

Q: What about the IC50 [5] of the same compound?
A: 108 µM

Q: And the Ratio [1]?
A: 4

Q: What about the Ratio [2] of the same compound?
A: 4

Q: For `CCOC(=O)C1=C[C@@H](OC(CC)CC)[C@H](NC(C)=O)[C@@H](N)C1.O=P(O)(O)O` [OSELTAMIVIR PHOSPHATE], which MED [3] is on record?
A: 0.625 µM

Q: Which results are given for `Cl.N[C@@H](Cc1c[nH]c2ccccc12)C(=O)Nc1cc(NC(=O)/C=C/c2ccco2)ccc1O`?
A: MED [3]: 2.5 µM; IC50 [4]: 194 µM; IC50 [5]: 189 µM; Ratio [1]: 4; Ratio [2]: 4

Q: Which IC50 [6] does the source give for `NC(Cn1ccc(=O)c(O)c1)C(=O)N[C@@H](Cc1ccc(O)cc1)C(=O)O` (stereo partly specified) here?
A: 2.8 µM

Q: What does the source list for `CSCC[C@H](N)C(=O)Nc1cc(NC(=O)/C=C/c2ccco2)ccc1O.Cl`?
A: MED [3]: 5 µM; IC50 [4]: 144 µM; IC50 [5]: 121 µM; Ratio [1]: 4; Ratio [2]: 4

Q: Which results are given for `C[C@@H](O)[C@H](N)C(=O)Nc1cc(NC(=O)/C=C/c2ccco2)ccc1O.Cl`?
A: MED [3]: 5 µM; IC50 [4]: 200 µM; IC50 [5]: 187 µM; Ratio [1]: 4; Ratio [2]: 4
